Measurements taken from the supplement of paper PMC10307832.

Compound: C1=CC2=NC=CN=C2C=C1/C=C/3\C(=O)NC(=O)S3 + Cc1cc(Nc2cc(N3CCN(C)CC3)nc(Sc3ccc(NC(=O)C4CC4)cc3)n2)n[nH]1 [Tozasertib] (partner 0.1 µM)
Experiment: relative viability (nuclei count vs DMSO), 5 days (fraction); higher = more cells survive
Conditions: first compound 2 µM
Outline: (§1)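 Medians of duplicate plates are given as relative viability. That measure is the nuclei count in treated wells divided by the count in vehicle wells. Counts were taken on 4× images of lung cancer cell lines in 1536-well plates, 5 days after pin-tool dosing the day after seeding with one drug alone or a fixed anchor-drug dose plus five library-drug doses (not always all listed) in √10 steps.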

Cell Line	relative viability
NCI-H596	0.902
LK-2	0.165
NCI-H2087	0.238
NCI-H2342	0.469
SK-MES-1	0.934
H3255	0.698
COR-L23	0.188
COR-L 105	0.354
LOU-NH91	0.588
ChaGo-K-1	0.239
NCI-H2170	0.795
HCC-44	0.605
SW 900	0.566
NCI-H1648	0.416
NCI-H2009	0.761
NCI-H661	0.374
SK-LU-1	0.316
NCI-H2228	0.221
NCI-H2023	0.335

Compound: C1=CC2=NC=CN=C2C=C1/C=C/3\C(=O)NC(=O)S3 + NC(=O)Nc1cc(-c2cccc(F)c2)sc1C(=O)N[C@H]1CCCNC1 [AZD7762] (partner 0.2 µM)
Experiment: as above
Conditions: first compound 0.02 µM
Outline: as §1

Cell Line	relative viability
NCI-H522	0.811
NCI-H727	0.597
NCI-H1703	0.126
NCI-H1993	0.772
NCI-H838	0.915
LCLC-103H	0.658
NCI-H2126	0.886
EMC-BAC-2	1.11
NCI-H2085	0.972
HCC-366	0.276
NCI-H1666	0.748
NCI-H596	1.15
LK-2	0.43
NCI-H2087	1.14
NCI-H2342	0.377
H3255	0.716
LOU-NH91	0.74
ChaGo-K-1	0.799
NCI-H2170	0.849
HCC-44	0.885
SW 900	0.653
NCI-H1648	0.659
NCI-H1792	0.675

Same assay, conditions: first compound 0.06325 µM

Cell Line	relative viability
NCI-H522	0.919
NCI-H727	0.63
NCI-H1703	0.109
NCI-H1993	0.801
NCI-H838	0.915
LCLC-103H	0.886
NCI-H2126	1.16
EMC-BAC-2	1.18
NCI-H2085	0.845
NCI-H1666	0.731
NCI-H596	1.14
LK-2	0.538
NCI-H2087	1.36
NCI-H2342	0.47
H3255	0.819
LOU-NH91	0.755
ChaGo-K-1	0.821
NCI-H2170	0.866
HCC-44	1
SW 900	0.571
NCI-H1648	0.562

Same assay, conditions: first compound 0.2 µM

Cell Line	relative viability
NCI-H522	1.07
NCI-H727	0.737
NCI-H1703	0.135
NCI-H1993	0.963
NCI-H838	0.914
LCLC-103H	0.828
NCI-H2126	0.952
EMC-BAC-2	1.21
NCI-H2085	0.958
HCC-366	0.247
NCI-H1666	0.865
NCI-H596	1.19
LK-2	0.466
NCI-H2087	1.21
NCI-H2342	0.453
H3255	0.903
LOU-NH91	0.797
ChaGo-K-1	0.905
NCI-H2170	0.888
HCC-44	1.02
SW 900	0.652
NCI-H1648	0.806
NCI-H1792	0.642

Same assay, conditions: first compound 0.6325 µM

Cell Line	relative viability
NCI-H522	0.772
NCI-H727	0.678
NCI-H1703	0.124
NCI-H1993	0.538
NCI-H838	0.861
LCLC-103H	0.749
NCI-H2126	0.937
EMC-BAC-2	1.08
NCI-H2085	0.984
HCC-366	0.235
NCI-H1666	0.827
NCI-H596	0.907
LK-2	0.4
NCI-H2087	1.21
NCI-H2342	0.397
H3255	0.901
LOU-NH91	0.733
ChaGo-K-1	0.791
NCI-H2170	0.766
HCC-44	1.01
NCI-H1792	0.667

Same assay, conditions: first compound 2 µM

Cell Line	relative viability
NCI-H522	0.86
NCI-H727	0.337
NCI-H1703	0.128
NCI-H1993	0.432
NCI-H838	0.685
LCLC-103H	0.629
NCI-H2126	0.581
EMC-BAC-2	0.651
NCI-H2085	0.918
HCC-366	0.303
NCI-H1666	0.608
NCI-H596	0.956
LK-2	0.14
NCI-H2087	1.26
NCI-H2342	0.335
H3255	0.825
LOU-NH91	0.55
ChaGo-K-1	0.83
NCI-H2170	0.874
HCC-44	1
SW 900	0.525
NCI-H1648	0.706
NCI-H1792	0.348

Compound: C1=CC2=NC=CN=C2C=C1/C=C/3\C(=O)NC(=O)S3 + COc1cc2c(Oc3ccc(NC(=O)C4(C(=O)Nc5ccc(F)cc5)CC4)cc3F)ccnc2cc1OCCCN1CCOCC1 [Foretinib] (partner 0.25 µM)
Experiment: as above
Conditions: first compound 0.02 µM
Outline: as §1

Cell Line	relative viability
NCI-H1623	0.756
NCI-H727	0.954
NCI-H1650	1
NCI-H1703	0.38
NCI-H1993	0.694
SW 1573	0.893
NCI-H838	1.02
LCLC-103H	0.864
NCI-H520	0.71
NCI-H2126	0.917
EMC-BAC-2	1.04
NCI-H2085	0.966
Calu-6	0.848
HCC-366	0.916
NCI-H1666	1.03
NCI-H596	0.856
LK-2	1.06
NCI-H2087	1.12
NCI-H2342	0.891
SK-MES-1	0.875
H3255	0.786
COR-L23	0.94
COR-L 105	1
IA-LM	1.15
LOU-NH91	0.917
ChaGo-K-1	0.83
